Marks after values point to notes of the source that are not given here. Bridge positions count the residues as written; N and C are the ends. Square brackets hold non-standard residues; d marks the D form. Ends that are not written are not given here. Peptide text beside a SMILES is read from it. d(pGlu) = O=C1CC[C@H](C(=O)O)N1
How the values were obtained:
Adult neural stem cells = test: Flow cytometry for early neuronal marker Doublecortin; conditions: for % Doublecortin-positive cells / Fold Induction (Doublecortin-positive cells): Table 6; for % Doublecortin-positive cells: 4 days; for Fold Induction (Doublecortin-positive cells): vs EGF/FGF
[1] = system: cAMP activation in mouse adult neural stem cells; test: cAMP detection (HitHunter EFC Cyclic AMP Chemiluminescence Assay); conditions: for Fold Induction cAMP: vs vehicle
[2] = system: mouse adult neural stem cells; test: ATP-assay: proliferation (ATP levels) of neurosphere-derived cells; conditions: for Fold Induction ATP: vs vehicle
[3] = Table 2, 10 nM (cAMP concentration)
[4] = Table 2, 1 nM (cAMP concentration)
[5] = Table 2, 100 nM (cAMP concentration)

| Molecule | % Doublecortin-positive cells (Adult neural stem cells; 100 nM) [%] | cAMP (pmol/well) [1, 3] [pmol/well] | ATP (nM ATP/well) ([2]; Table 2, 100 nM, 4 days) | Fold Induction (Doublecortin-positive cells) (Adult neural stem cells; 100 nM) [fold] | cAMP (pmol/well) [1, 4] [pmol/well] | further results |
| --- | --- | --- | --- | --- | --- | --- |
| CSCC[C@H](NC(=O)[C@H](CC(C)C)NC(=O)CNC(=O)[C@@H](NC(=O)[C@H](Cc1ccccc1)NC(=O)[C@H](CO)NC(=O)[C@H](CC(=O)O)NC(=O)[C@@H](NC(=O)[C@H](CCCCN)NC(=O)[C@@H](N)Cc1c[nH]cn1)[C@@H](C)O)C(C)C)C(N)=O [α-Neurokinin] | 4.6 | 0.11 ± 0.03 | 11.0 ± 1.4 |  |  |  |
| KYGQVPMCDAGEQCAVRKGARIGKLCDCPRGTSCNSFLLKCL (disulfide 8-26, 14-34, 28-41) [CART (61-102)] | 4.7 | 0.13 ± 0.02 | 8.3 ± 0.4 | 1.8 |  | Fold Induction cAMP ([1]; Table 2, 10 nM): 1.2* (10 nM) fold; Fold Induction ATP ([2]; Table 2, 100 nM, 4 days): 1.2** fold |
| C=C[C@@]1(C)CC(=O)[C@]2(O)[C@@]3(C)[C@@H](O)CCC(C)(C)[C@@H]3[C@H](O)[C@H](OC(C)=O)[C@@]2(C)O1 [Forskolin, forskolin] |  |  |  |  |  | fold induction at 10 µM (Adult neural stem cells; Mus musculus, Neural stem cell, read-out: Fold Induction (Doublecortin-positive cells)): 2.5; % Doublecortin-positive cells (Adult neural stem cells; 10 μM): 6.3%; fold induction at 1 µM ([1]; Mus musculus, Neural stem cell, 0.25 h, read-out: Fold Induction cAMP): 3.1; cAMP (pmol/well) ([1]; Table 1, 1000 nM, after 15 minutes): 0.07 ± 0.01 pmol/well; fold induction at 1 µM ([2]; Mus musculus, Neural stem cell, 96 h, read-out: Fold Induction ATP): 1.1; ATP (nM ATP/well) ([2]; Table 1, 1000 nM, 4 days in culture): 10.4 ± 2.4 nM ATP/well |
| CC(C)C[C@H](NC(=O)[C@H](Cc1ccccc1)NC(=O)CNC(=O)CNC(=O)[C@@H](N)Cc1ccc(O)cc1)C(=O)N[C@@H](CCCNC(=N)N)C(=O)N[C@@H](CCCCN)C(=O)N[C@@H](Cc1ccc(O)cc1)C(=O)N1CCC[C@H]1C(=O)N[C@@H](CCCCN)C(=O)O [α-Neo-Endorphin] (H-YGGFLRKYPK-OH; N-terminus and C-terminus assumed) | 4.0 |  | 13.8 ± 2.1 | 1.6 | 0.36 ± 0.09 | Fold Induction cAMP ([1]; Table 2, 1 nM): 1.7* (1 nM) fold; Fold Induction ATP ([2]; Table 2, 100 nM, 4 days): 1.8** fold |
| CC(C)C[C@H](NC(=O)[C@@H](Cc1c[nH]c2ccccc12)NC(=O)[C@H](Cc1ccc(O)cc1)NC(=O)[C@H](CO)NC(=O)[C@@H](Cc1c[nH]c2ccccc12)NC(=O)[C@@H](Cc1ccccc1)NC(=O)[C@H]1CCC(=O)N1)C(=O)N[C@@H](CCCNC(=N)N)C(=O)N1CCC[C@H]1C(=O)NCC(N)=O [[D-pGlu1,D-Phe2, D-Trp3,6]-LH-RH] ([d(pGlu)][dF][dW]SY[dW]LRPG-NH2; C-terminus assumed) | 3.4 |  | 11.1 ± 0.4 |  | 0.07 ± 0.02 |  |
| CC(C)C[C@H](NC(=O)[C@H](CCCCN)NC(=O)CNC(=O)[C@H](CC(C)C)NC(=O)[C@@H](NC(=O)[C@@H]1CSSC[C@H](N)C(=O)N[C@@H](CO)C(=O)N[C@@H](CC(N)=O)C(=O)N[C@@H](CC(C)C)C(=O)N[C@@H](CO)C(=O)N[C@@H]([C@@H](C)O)C(=O)N1)C(C)C)C(=O)N[C@@H](CO)C(=O)N[C@@H](CCC(N)=O)C(=O)N[C@@H](CCC(=O)O)C(=O)N[C@@H](CC(C)C)C(=O)N[C@@H](Cc1c[nH]cn1)C(=O)N[C@@H](CCCCN)C(=O)N[C@@H](CC(C)C)C(=O)N[C@@H](CCC(N)=O)C(=O)N[C@H](C(=O)N[C@@H](Cc1ccc(O)cc1)C(=O)N1CCC[C@H]1C(=O)N[C@@H](CCCNC(=N)N)C(=O)N[C@H](C(=O)N[C@@H](CC(N)=O)C(=O)N[C@H](C(=O)NCC(=O)N[C@@H](CO)C(=O)NCC(=O)N[C@H](C(=O)N1CCC[C@H]1C(N)=O)[C@@H](C)O)[C@@H](C)O)[C@@H](C)O)[C@@H](C)O [Thyrocalcitonin (Salmon)] | 3.9 |  |  | 1.5 | 0.63 ± 0.23 | Fold Induction cAMP ([1]; Table 2, 1 nM): 3.8* (1 nM) fold; ATP (nM ATP/well) ([2]; Table 2, 1 nM, 4 days): 9.2 ± 0.7 nM ATP/well; Fold Induction ATP ([2]; Table 2, 1 nM, 4 days): 1.3* fold |
| CNC(=O)[C@H]1O[C@@H](n2cnc3c(N)ncnc32)[C@H](O)[C@@H]1O [MECA] |  |  | 7.4 ± 0.7 |  |  | % Doublecortin-positive cells (Adult neural stem cells; 10 μM): 2.2%; Fold Induction (Doublecortin-positive cells) (Adult neural stem cells; 10 μM): 0.9 fold; cAMP (pmol/well) [1, 5]: 3.89 ± 1.00 pmol/well; Fold Induction cAMP ([1]; Table 2, 100 nM): 2.1* fold; Fold Induction ATP ([2]; Table 2, 100 nM, 4 days): 1.6** fold |
| N=C(N)NCCC[C@@H](N)C(=O)N[C@@H](CCCNC(=N)N)C(=O)N1CCC[C@H]1C(=O)N1C[C@H](O)C[C@H]1C(=O)NCC(=O)N[C@H](C(=O)N[C@@H](CO)C(=O)N[C@@H](C(=O)N1[C@H](C(=O)N[C@@H](CCCNC(=N)N)C(=O)O)C[C@@H]2CCCC[C@@H]21)C1Cc2ccccc2C1)C1Cc2ccccc2C1 [[D-Arg0, Hyp3, Ig15, D-Ig17, Oic8]-Bradykinin] | 3.6 | 0.17 ± 0.02 | 13.1 ± 2.1 |  |  |  |
| N=C(N)NCCC[C@H](N)C(=O)N1CCC[C@H]1C(=O)N1CCC[C@H]1C(=O)NCC(=O)N[C@@H](Cc1ccccc1)C(=O)N[C@@H](CO)C(=O)N1CCC[C@H]1C(=O)N[C@@H](Cc1ccccc1)C(=O)O [[Des-Arg9]-Bradykinin] | 4.5 |  |  | 1.8 | 0.06 ± 0.01 | Fold Induction cAMP ([1]; Table 2, 1 nM): 1.7*** fold; ATP (nM ATP/well) ([2]; Table 2, 1 nM, 4 days): 10.4 ± 1.0 nM ATP/well; Fold Induction ATP ([2]; Table 2, 1 nM, 4 days): 1.2* fold |
| CSCC[C@H](NC(=O)[C@H](CCCNC(=N)N)NC(=O)[C@H](Cc1ccc(O)cc1)NC(=O)[C@@H]1CCCN1C(=O)CNC(=O)[C@H](CCC(=O)O)NC(=O)[C@H](CC(=O)O)NC(=O)[C@H](CCCCN)NC(=O)[C@H](CCCCN)NC(=O)[C@H](CCC(=O)O)NC(=O)[C@H](C)N)C(=O)N[C@@H](CCC(=O)O)C(=O)N[C@@H](Cc1c[nH]cn1)C(=O)N[C@@H](Cc1ccccc1)C(=O)N[C@@H](CCCNC(=N)N)C(=O)N[C@@H](Cc1c[nH]c2ccccc12)C(=O)NCC(=O)N[C@@H](CO)C(=O)N1CCC[C@H]1C(=O)N1CCC[C@H]1C(=O)N[C@@H](CCCCN)C(=O)N[C@@H](CC(=O)O)C(=O)O [β-MSH, β-Melanocyte Stimulating Hormone] | 4.1 | 0.23 ± 0.02 | 13.6 ± 1.6 |  |  |  |
| CSCC[C@H](NC(=O)[C@H](Cc1ccc(O)cc1)NC(=O)[C@@H](N)CC(=O)O)C(=O)NCC(=O)N[C@@H](Cc1c[nH]c2ccccc12)C(=O)N[C@@H](CCSC)C(=O)N[C@@H](CC(=O)O)C(=O)N[C@@H](Cc1ccccc1)C(N)=O [Cholecystokinin Octapeptide [CCK(26-33)]] | 3.2 |  |  |  |  | cAMP (pmol/well) [1, 5]: 0.27 ± 0.06 pmol/well; ATP (nM ATP/well) ([2]; Table 2, 10 nM, 4 days): 9.8 ± 0.4 nM ATP/well |
| CSCC[C@@H]1NC(=O)[C@H](C)NC(=O)[C@H]([C@@H](C)O)NC(=O)CNC(=O)[C@H](CC(C)C)NC(=O)[C@H](CCCCN)NC(=O)[C@H](CCCNC(=N)N)NC(=O)[C@@H]2CSSC[C@@H]3NC(=O)[C@@H]4CCCN4C(=O)[C@H](C(C)C)NC(=O)[C@H](CCC(N)=O)NC(=O)[C@H](CCC(N)=O)NC(=O)CNC(=O)[C@H](CC(C)C)NC(=O)[C@@H]4CSSC[C@H](NC(=O)[C@H]([C@@H](C)O)NC(=O)[C@H](C)NC(=O)[C@H](CSSC[C@@H](C(=O)N[C@@H](CO)C(=O)N[C@@H](CCCNC(=N)N)C(=O)N[C@H](C(N)=O)[C@@H](C)O)NC(=O)[C@@H]5CCCN5C(=O)[C@H](CC(N)=O)NC1=O)NC(=O)[C@@H]1CCCN1C(=O)[C@H](CC(=O)O)NC(=O)[C@H](CSSC[C@H](N)C(=O)N[C@@H](C(C)C)C(=O)N[C@@H](CCCNC(=N)N)C(=O)N[C@@H](CC(C)C)C(=O)N[C@@H](Cc1c[nH]cn1)C(=O)N[C@@H](CCC(=O)O)C(=O)N[C@@H](CO)C(=O)N4)NC3=O)C(=O)N[C@@H](Cc1ccc(O)cc1)C(=O)N[C@H]1CSSC[C@H](NC(=O)[C@H](Cc3ccccc3)NC(=O)[C@H](C)NC(=O)[C@H](CC(N)=O)NC(=O)[C@H](Cc3ccccc3)NC(=O)[C@H](Cc3ccccc3)NC(=O)[C@H](CCCNC(=N)N)NC1=O)C(=O)N[C@@H](Cc1ccc(O)cc1)C(=O)N2 [Agouti Related Protein (87-132)-Amide (Human)] | 2.4 | 0.5 ± 0.20 |  | 0.9 |  | Fold Induction cAMP ([1]; Table 2, 10 nM): 2.4* fold; ATP (nM ATP/well) ([2]; Table 2, 10 nM, 4 days): 11.2 ± 1.7 nM ATP/well; Fold Induction ATP ([2]; Table 2, 10 nM, 4 days): 1.4* fold |

Reference: patent US6969702B2, “Compounds and methods for increasing neurogenesis” (priority 2002, dated 2005)
